Target: G-protein coupled receptor 52 (Homo sapiens, UniProt Q9Y2T5)
Test: Antagonist activity at GPR52 (unknown origin) expressed in HEK293 cells assessed as inhibition of WO459-induced cAMP accumulation preincubated for 15 mins followed by WO459 addition and measured after 30 mins by LANCE Ultra cAMP kit based microplate reader analysis
Type: functional, cell-based
Conditions: read-out: IC50

Sequence of G-protein coupled receptor 52 (Q9Y2T5 whole entry): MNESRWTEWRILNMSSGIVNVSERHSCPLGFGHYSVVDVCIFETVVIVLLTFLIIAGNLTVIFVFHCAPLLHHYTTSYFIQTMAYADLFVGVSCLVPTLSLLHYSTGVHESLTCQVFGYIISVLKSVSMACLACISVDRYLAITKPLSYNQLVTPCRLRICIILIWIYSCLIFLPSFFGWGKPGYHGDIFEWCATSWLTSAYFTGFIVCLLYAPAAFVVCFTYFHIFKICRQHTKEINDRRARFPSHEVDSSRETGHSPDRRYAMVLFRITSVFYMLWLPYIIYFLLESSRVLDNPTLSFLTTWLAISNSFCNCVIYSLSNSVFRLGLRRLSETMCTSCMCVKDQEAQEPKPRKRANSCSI

IC50 [µM]	SMILES
7.64	O=C(/C=C/CCc1ccccc1)c1ccc(-c2ccccc2)cc1
3.02	Cc1ccc(C(=O)/C=C/CCc2ccccc2)cc1

Source: ChEMBL document CHEMBL4706623, “GPR52 Antagonist Reduces Huntingtin Levels and Ameliorates Huntington's Disease-Related Phenotypes” (J Med Chem, 2021)
